From patent publication US20050163755A1, “Methods and compositions related to 1-caldesmon” (priority 2003, published 2005)

Experiments:
Format in all cases: cell-based, avian
DF-1 cells [1] = assay: In vitro wound closure assay to measure cell motility; conditions: mechanical wounding
Experimental: DF-1 cell motility was measured by wounding the cell monolayer and measuring wound closure by monitoring the traversed distance over time. DF-1 cells were plated at 70% confluence on glass cover slips coated with 100 μg/ml of fibronectin. These cells were then transfected with Ad-CaD or Ad-empty and allowed to grow to 100% confluence (2 days post-transfection). A wound was made in the monolayer using a sterile pipette tip with an outer diameter of 300 μm. The same area was captured sequentially at time intervals of 0, 1, 3, and 6 hours under phase contrast microscopy. The migrated distance was assessed at 3 locations that were separated by equal distance. Cell motility was determined as the average velocity for the 3 measurements for each time point. […]
It was next evaluated whether human wild-type 1-CaD expression disturbs cytopathic effects such as wound closure. Cell motility in response to mechanical wounding was measured to address this question. […] Cultured monolayers were subjected to mechanical wounding with a glass pipette and time-lapse images of cell motility were recorded over a period of several hours. Each image was equally divided into 3 regions, and the leading edge of cell migration was measured for each time point. Cell motility for each time point was determined as the average velocity measured for each of 3 regions. […]

DF-1 cells [2] = assay: Cell viability assay, trypan blue; conditions: 48 hrs, 200 MOI virus or 3 μM cytochalasin D
Experimental: Cultured cells were transfected with Ad-CaD or the controlled virus using a calcium phosphate co-precipitation technique. Cells were washed free of virus and incubated for additional 48 hours in serum containing medium. Transfected cells were exposed to trypan blue dye and the fraction of viable cells was quantitated. Viability of cells transfected with Ad-CaD and controlled virus was compared to the cell viability measured in monolayers exposed to cytochalasin for the same corresponding period.

DF-1 cells [3] = assay: Transcellular resistance of confluent monolayers on microelectrode (adenovirus system); conditions: 3 μM cytochalasin D vs virus at MOI of 200
Experimental: Quantitative transcellular impedance measurements were acquired in real-time using a previously reported technique of inoculating cultured cells grown on the surface of microelectrodes coated with 100 μg/ml of fibronectin (Moy et al., 2002, Moy et al., 1998, Moy et al., 1996, Moy et al., 2000). A 1-volt, 4000 Hz AC signal was supplied through a 1-M Ω resistor to approximate a constant-current source. Voltage and phase data were measured with a SRS830 lock-in amplifier (Stanford Instruments) and then later stored and processed with a personal computer. The in-phase voltage, proportional to the resistance, and the out-of-phase voltage, proportional to the capacitive reactance, were measured. For most situations, resistance is reported because it is most sensitive to cytoskeletal-membrane properties. […] A uniform number of viable cells (˜650,000 cells per sample), which was determined by the amount of cells that excluded trypan blue, were inoculated on the electrode to control for the effect of cell viability. Transcellular resistance was measured as a fractional change and normalized to the cell resistance of wild-type DF-1 cells. Transcellular resistance was measured at 15 hours for inter-subject comparisons—a time point at which transcellular resistance was at steady state. […]

DF-1 cells [4] = assay: Prestress force: constitutive isometric tension on collagen membranes; conditions: 3 μM cytochalasin D
Experimental: Prestress was determined by the measured loss of constitutive isometric tension in response to cytochalasin D. Isometric tension was measured in cultured DF-1 cells inoculated on the surface of polymerized type 1 collagen membranes as described by Bodmer (1997). Isometric tension was simultaneously monitored in 2 separate isometric vectors to account for the presence of anisotropic tension. Constitutive tension was measured in cell-collagen lattices under unloaded conditions. To determine the optimal length-tension relationship during the unloaded state, the collagen gel was stretched with a micromanipulator that was attached to the transducer until a 10 mg increase in force was observed. The gel was progressively unloaded until no further decline in preload was observed. The length (Carson et al., 1989) of the gel was chosen as the no-load state. […] The constitutive tension was defined as the measured loss in tension upon the addition of cytochalasin D.
Since expression of wild-type human 1-CaD stabilizes membrane capacitance, it was next asked whether this enhancement was attributed to a reduction in myosin ATPase activity. […] Constitutive tension was measured under isometric no-load conditions in order to be consistent with the mechanical state at which transcellular resistance was measured. […]

DF-1 cells [5] = assay: Numerical modeling of transcellular impedance (α, Rb, Cm); conditions: 3 μM cytochalasin D, wild-type DF-1 cells
Source text: A numerical analysis was used to calculate specific cell-cell and cell-substrate adhesion and membrane capacitance based on the measured transcellular impedance. The procedure is described in more detail elsewhere for endothelial cells (Moy et al., 2002, Moy et al., 2000), fibroblasts (Giaever and Keese, 1991), and for epithelial cells (Lo et al., 1995). The total impedance across a cell-covered electrode is composed of the impedance created between the ventral surface of the cell and the electrode (related to α and due to cell-matrix adhesion), the impedance created between cells (indicated by Rb and due to cell-cell adhesion), the transcellular impedance created from transcellular current conduction (Zm) and the impedance of a naked electrode (Zn). For these calculations, Zm is inversely related to membrane capacitance (Cm), which is dependent upon membrane convolution, which, in turn, is dependent on the cortical cytoskeleton. The data was expressed as a ratio of the real or imaginary measurement of cell-covered electrode to a naked electrode as a function of current frequency between 25 to 60,000 Hz. A calculated real and imaginary value was generated from the solutions of α, Rb and Cm obtained from a multi-response Levenberg-Maquardt non-linear optimization model of the real, imaginary, real and imaginary (in complex form) and real and imaginary (in magnitude form) data. An error evaluation was calculated using a Chi square analysis of the squared sum of the calculated and the experimental residuals as a function of current frequency. […]
Using a previously reported mathematical model, it was next evaluated whether the difference in 1-CaD-mediated change in transcellular resistance was due to effects on cell-cell, cell-matrix adhesion, membrane capacitance or a combination of all three. […] A calculated resistance and capacitance was generated from iterative solutions of α, Rb and Cm obtained from a multi-response Levenberg-Maquardt non-linear optimization model of the real and/or imaginary data. […]

Compound: C=C1[C@@H](C)[C@H]2[C@H](Cc3ccccc3)NC(=O)[C@]23[C@H](OC(C)=O)/C=C/[C@@](C)(O)C(=O)[C@@H](C)C/C=C/[C@H]3[C@@H]1O [Cytochalasin D]
- Wound repair (DF-1 cells [1]): completely inhibited wound repair
- Cell viability / cell death (DF-1 cells [2]): decreased cell viability in a statistically significant manner
- Transcellular resistance (DF-1 cells [3]): greater loss in transcellular resistance than cells transfected with Ad-CaD or controlled virus
- Constitutive tension (DF-1 cells [4]): abolished constitutive tension
- Cm (membrane capacitance) (DF-1 cells [5]): statistically significant increase in Cm
- Rb (cell-cell adhesion) (DF-1 cells [5]): decrease in α and Rb
- α (cell-matrix adhesion) (DF-1 cells [5]): decrease in α and Rb
